Source: US4150137A, “Pyridylalkyl esters of 2-(p-isobutylphenyl)acetic acid and propionic acids and use” (Hisamitsu Pharmaceutical Co. Inc., priority 1975, dated 1979)

Columns and labels:
[1] = tested on: male mice of dd-strain; format: in vivo; settings: death of animals 72 hours following administration
Method: Each test compound suspended in 0.5% tragacanth-saline was administered intraperitoneally or orally to male mice of dd-strain(body weight 16-24 g). The lethal dose was estimated from the death of animals 72 hours following administration.

[2] = tested on: writhing syndrome; test: Analgetic activity (acetic acid writhing syndrome); format: in vivo, mouse (dd-strain); settings: Mus musculus, 1 h; oral, mice, 0.6% acetic acid i.p. one hour later; Litchfield-Wilcoxon; read-out: analgetic effect ED50 (95% C.L.)
Method: Each test compound suspended in 0.5% tragacanth-saline was orally administered to dd-strain mice(body weight: 18-20 g). After one hour 0.6% acetic acid solution was injected intraperitoneally in a volume of 0.1 ml/10 g.

[3] = tested on: carrageenin-induced leakage of the pigment, dorsal skin; test: Anti-inflammatory activity for topical route (carrageenin, leakage of pigment in dorsal skin); format: in vivo, rat (Wistar-strain); settings: for anti-inflammatory effect, topical (relative inhibition, ibuprofen = 1.0): 1% in polyethylene glycol 300, percent inhibition divided by that of ibuprofen
Method: The dorsal skin of male rats of Wistar-strain(body weight: about 100 g) were depilated. Carrageenin suspension was injected intra-dermally at a dose of 250 γ/0.05 ml/site. […] Immediately after injection, the filter paper containing 125.2±18.0 mg of the polyethylene glycol was applied on the injected site. After 3 hours, 1% pontamine sky blue solution was injected intravenously at a dose of 0.5 ml/kg. After further 3 hours, the animals were sacrificed and their dorsal skin were removed to measure the area of leakage of the pigment. The percent inhibition was determined with respect to the results for the control animals.

[4] = tested on: carrageenin edema; test: Anti-inflammatory activity for oral route (carrageenin edema, hind paw); format: in vivo, rat (Wistar-strain); settings: for anti-inflammatory effect, oral, 10 mg/kg (relative inhibition, ibuprofen = 1.0): 10 mg/kg oral; for anti-inflammatory effect, oral, 10 mg/kg (relative inhibition, ibuprofen = 1.0) / anti-inflammatory effect, oral, 50 mg/kg (relative inhibition, ibuprofen = 1.0): percent inhibition divided by that of ibuprofen, carrageenin edema after 3 hours; for anti-inflammatory effect, oral, 50 mg/kg (relative inhibition, ibuprofen = 1.0): 50 mg/kg oral; for mean percent inhibition (carrageenin edema): oral
Method: After 30 minutes 0.5-1.0% carrageenin suspended in the water for injection was injected subcutaneously to a hind paw. After 3 hours the carrageenin edema was measured by volume, and the percent inhibition was determined with respect to the results for the control animals.

Structure (SMILES)	acute toxicity, oral (lethal dose) [1] [mg/kg]	ED50 [2] [mg/kg]	anti-inflammatory effect, topical (relative inhibition, ibuprofen = 1.0) [3]	anti-inflammatory effect, oral, 10 mg/kg (relative inhibition, ibuprofen = 1.0) [4]	anti-inflammatory effect, oral, 50 mg/kg (relative inhibition, ibuprofen = 1.0) [4]	mean percent inhibition (topical route) ([3]; 1% in polyethylene glycol 300) [%]	mean percent inhibition (carrageenin edema) ([4]; 10 mg/kg) [%]	mean percent inhibition (carrageenin edema) ([4]; 50 mg/kg) [%]
CC(C)Cc1ccc(C(C)C(=O)OCCN(C)C)cc1 (stereo not drawn)	1000 to 2000	53.7	2.0	0.8	1.2			
CC(=O)OCCOC(=O)C(C)c1ccc(CC(C)C)cc1 (stereo not drawn) [Compound 18]	> 2000	308	2.2	0.7	1.1			
CC(C)Cc1ccc(C(C)C(=O)OCc2cccnc2)cc1 (stereo not drawn)	1000 to 2000	31.2	1.7	1.0	1.4			
CC(C)Cc1ccc(C(C)C(=O)OCCO)cc1 (stereo not drawn) [Compound 10]	> 2000	155	1.9	0.5	1.0			
CCOCCOC(=O)C(C)c1ccc(CC(C)C)cc1 (stereo not drawn) [Compound 15]	> 2000	156	1.2	0.7	0.9			
CC(C)Cc1ccc(C(C)C(=O)OCCN2CCOCC2)cc1 (stereo not drawn)	1000 to 2000	154	1.6	0.7	0.9			
CC(C)Cc1ccc(C(C)C(=O)OCc2ccccn2)cc1 (stereo not drawn)	1000 to 2000	67.8	4.0	0.7	1.8			
CC(C)Cc1ccc(C(C)C(=O)O)cc1 (stereo not drawn) [ibuprofen, 2-(p-isobutylphenyl)propionic acid, reference compound]		45.8				23.8	33.5	37.4
CC(C)Cc1ccc(C(C)C(=O)OCc2ccncc2)cc1 (stereo not drawn)	> 2000	87.1	2.7	1.0	1.2			
CC(C)Cc1ccc(C(C)C(=O)OCC2CC2)cc1 (stereo not drawn)	2000	103	3.7	0.8	1.6			
CC(C)Cc1ccc(C(C)C(=O)OCc2ccccc2F)cc1 (stereo not drawn)		202	2.9	1.6	1.7			
CC(=O)OCOC(=O)C(C)c1ccc(CC(C)C)cc1 (stereo not drawn) [Compound 17]				0.9	0.9			
CC(C)Cc1ccc(C(C)C(=O)OCCOCCO)cc1 (stereo not drawn) [Compound 16]	> 2000	151	2.3		0.9			
CC(C)Cc1ccc(C(C)C(=O)OCc2c(Cl)cccc2Cl)cc1 (stereo not drawn)	> 2000	79.6	2.1	0.6	1.0			
COc1ccc(COC(=O)C(C)c2ccc(CC(C)C)cc2)cc1 (stereo not drawn)		220	2.3	0.8	1.4			
CC(C)Cc1ccc(C(C)C(=O)OCc2ccc(F)cc2)cc1 (stereo not drawn)				1.1	1.2			

Structure (SMILES)	acute toxicity, oral (lethal dose) [1] [mg/kg]	ED50 [2] [mg/kg]	anti-inflammatory effect, topical (relative inhibition, ibuprofen = 1.0) [3]	anti-inflammatory effect, oral, 10 mg/kg (relative inhibition, ibuprofen = 1.0) [4]	anti-inflammatory effect, oral, 50 mg/kg (relative inhibition, ibuprofen = 1.0) [4]	mean percent inhibition (topical route) ([3]; 1% in polyethylene glycol 300) [%]	mean percent inhibition (carrageenin edema) ([4]; 10 mg/kg) [%]	mean percent inhibition (carrageenin edema) ([4]; 50 mg/kg) [%]
CC(C)Cc1ccc(C(C)C(=O)OCc2ccccc2Cl)cc1 (stereo not drawn)	> 2000	51.4	2.5	0.5	1.0			
CCOC(=O)COC(=O)C(C)c1ccc(CC(C)C)cc1 (stereo not drawn) [Compound 19]	> 2000	180	1.9	0.5	0.7			
CC(C)Cc1ccc(C(C)C(=O)OCc2ccccc2)cc1 (stereo not drawn)	> 2000	118	3.1	0.7	0.9			
Cc1ccc(COC(=O)C(C)c2ccc(CC(C)C)cc2)cc1 (stereo not drawn)		230	1.9	1.7	1.5			
CC(C)Cc1ccc(C(C)C(=O)OCCN2CCN(C)CC2)cc1 (stereo not drawn)	1000 to 2000	31.6	2.5	1.0	1.1			
CC(C)Cc1ccc(C(C)C(=O)OCCCN(C)C)cc1 (stereo not drawn)	500 to 1000	29.9	2.2	0.7	1.1			
COCCOC(=O)C(C)c1ccc(CC(C)C)cc1 (stereo not drawn) [Compound 14]	1000 to 2000	406	1.2	0.4	1.2			
CCCCCCOC(=O)C(C)c1ccc(CC(C)C)cc1 (stereo not drawn) [Compound 6]	> 2000	215	3.5		1.2			
CC(C)Cc1ccc(C(C)C(=O)OCc2cccc(F)c2)cc1 (stereo not drawn)		634	0.9	0.8	1.7			
CCCOC(=O)C(C)c1ccc(CC(C)C)cc1 (stereo not drawn) [Compound 2, 2-(4-isobutylphenyl)propionic acid-n-propyl ester]	> 2000	192	3.2	0.7	1.1			
CC(C)Cc1ccc(C(C)C(=O)OCc2ccc(Cl)cc2)cc1 (stereo not drawn)	> 2000	486	2.8	0.5	1.0			
COC(=O)C(C)c1ccc(CC(C)C)cc1 (stereo not drawn) [Compound 1]	> 2000	109	3.5	0.8	1.4			
CCN(CC)CCOC(=O)C(C)c1ccc(CC(C)C)cc1 (stereo not drawn)	500 to 1000	318	3.0	1.2	0.9			
CCOCOC(=O)C(C)c1ccc(CC(C)C)cc1 (stereo not drawn) [Compound 13]	> 2000	155	2.8	1.3	1.0			
CC(C)Cc1ccc(C(C)C(=O)OCC(O)CO)cc1 (stereo not drawn) [Compound 11]	1000 to 2000	143		1.1	0.9			
